According to patent publication US10208071B2, “Use of agonists of formyl peptide receptor 2 for treating ocular inflammatory diseases” (Allergan, Inc., priority 2013, dated 2019):

Target: FPR2 (Homo sapiens (Human), UniProt P25090)
Assay: FLIPR Ca+2 response, HEK-Gα16 cells stably expressing the human FPR2 receptor (Table 4)
Assay type: cell-based
Details: for FPR2 (efficacy): efficacy in parentheses
Description: FLIPR: HEK-Gα16 cells stably expressing the human FPR2 receptor was utilized. Cells were plated into 384-well poly-D-lysine coated plates at a density of 18,000 cells per well one day prior to use. The growth media was DMEM medium supplemented with 10% fetal bovine serum (FBS), 1% antibiotic-antimycotic, 50 μg/ml hygromycin, and 400 μg/ml geneticin. On the day of the experiment, the cells were washed twice with Hank's Balanced Salt Solution supplemented with 20 mM HEPES (HBSS/hepes buffer). The cells were then dye loaded with 2 μM Fluo-4 diluted in the HBSS/Hepes buffer and incubated at 37° C. for 40 minutes. Extracellular dye was removed by washing the cell plates four times prior to placing the plates in the FLIPR (Fluorometric Imaging Plate Reader, Molecular Devices). Ligands were diluted in HBSS/Hepes buffer and prepared in 384-well microplates. Data for Ca^+2 responses were obtained in relative fluorescence units.

Sequence of FPR2 (P25090 whole entry): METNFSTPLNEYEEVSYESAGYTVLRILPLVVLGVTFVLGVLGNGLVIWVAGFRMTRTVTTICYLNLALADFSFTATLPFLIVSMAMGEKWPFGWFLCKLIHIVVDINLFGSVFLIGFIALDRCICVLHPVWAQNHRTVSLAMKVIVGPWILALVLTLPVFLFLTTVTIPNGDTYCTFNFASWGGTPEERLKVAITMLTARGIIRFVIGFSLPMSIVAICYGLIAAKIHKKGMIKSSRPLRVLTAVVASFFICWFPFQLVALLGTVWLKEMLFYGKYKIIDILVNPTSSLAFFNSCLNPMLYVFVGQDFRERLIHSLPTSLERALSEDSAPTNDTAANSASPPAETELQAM

Compound	FPR2 (efficacy)	EC50 [nM]
CC(C)C[C@H](NC(=O)Nc1ccc(Br)cc1)C(=O)NCC(O)CO (stereo partly drawn) [Compound 95, (2S)-2-{[(4-bromophenyl)carbamoyl]amino}-N-(2,3-dihydroxypropyl)-4-methylpentanamide]	nM (0.98)	–
C[S+]([O-])c1ccc(NC(=O)Nc2ccc3c(c2)C(=O)N(CCc2c[nH]cn2)C(c2ccc(F)cn2)C3)cc1 (stereo not drawn) [Compound 24, 1-{3-(5-fluoropyridin-2-yl)-2-[2-(1H-imidazol-4-yl)ethyl]-1-oxo-1,2,3,4-tetrahydroisoquinolin-7-yl}-3-[4-(methylsulfinyl)phenyl]urea]	nM (0.93)	–
CCOP(=O)(CNC(=O)[C@H](CC(C)C)NC(=O)Nc1ccc(SC)cc1)OCC [Compound 138, diethyl ({[(2S)-4-methyl-2-({[4-(methylsulfanyl)phenyl]carbamoyl}amino)pentanoyl]amino}methyl)phosphonate]	nM (0.91)	3.5
CC(C)C[C@H](NC(=O)Nc1ccc(Br)cc1)C(=O)NC(CO)CO [Compound 94, (2S)-2-{[(4-bromophenyl)carbamoyl]amino}-N-(1,3-dihydroxypropan-2-yl)-4-methylpentanamide]	nM (0.96)	–
CC1(CCc2cccc(F)c2)NC(=O)N(NC(=O)Nc2ccc(Br)cc2)C1=O (stereo not drawn) [Compound 83, 1-(4-bromophenyl)-3-{4-[2-(3-fluorophenyl)ethyl]-4-methyl-2,5-dioxoimidazolidin-1-yl}urea]	nM (1.0)	–
CC[C@H](C)[C@H](NC(=O)Nc1ccc(Br)cc1F)C(=O)NCC(=O)O [Compound 59, {[(2S,3S)-2-{[(4-bromo-2-fluorophenyl)carbamoyl]amino}-3-methylpentanoyl]amino}acetic acid]	nM (0.95)	–
O=C(O)C1C(C(=O)Nc2ccc(Br)cc2)C2C=CC1C21CC1 (stereo not drawn) [Compound 12, 3-[(4-bromophenyl)carbamoyl] spiro[bicyclo[2.2.1]heptane-7,1′-cyclopropane]-5-ene-2-carboxylic acid]	nM (0.97)	4
CCC1(C(C)C)NC(=O)N(NC(=O)Nc2ccc(Br)cc2)C1=O (single isomer, unassigned; (+)) [Compound 66, (+)1-(4-bromophenyl)-3-[4-ethyl-2,5-dioxo-4-(propan-2-yl)imidazolidin-1-yl]urea]	nM (0.96)	–
CC1(CCc2ccc(O)c(F)c2)NC(=O)N(NC(=O)Nc2ccc(Br)cc2F)C1=O (stereo not drawn) [Compound 98, 1-(4-bromo-2-fluorophenyl)-3-{4-[2-(3-fluoro-4-hydroxyphenyl)ethyl]-4-methyl-2,5-dioxoimidazolidin-1-yl}urea]	nM (0.91)	–
CC(C)C1(CC(=O)NCCC(=O)O)NC(=O)N(NC(=O)Nc2ccc(Br)cc2)C1=O (stereo not drawn) [Compound 147, 3-({[1-{[(4-bromophenyl)carbamoyl]amino}-2,5-dioxo-4-(propan-2-yl)imidazolidin-4-yl]acetyl}amino)propanoic acid]	nM (0.99)	3.9
CC(C)C[C@H](NC(=O)Nc1ccc(Br)cc1)C(=O)NCCO [Compound 75, (2S)-2-{[(4-bromophenyl)carbamoyl]amino}-N-(2-hydroxyethyl)-4-methylpentanamide]	nM (0.76)	13.5
CC1(C)C2CCC1C(C(=O)Nc1ccc(Br)cc1)C2C(N)=O (stereo not drawn) [Compound 34, N-(4-bromophenyl)-7,7-dimethylbicyclo[2.2.1]heptane-2,3-dicarboxamide]	nM (0.83)	–
CCC[C@H](NC(=O)[C@H](CC(C)C)NC(=O)Nc1ccc(Br)cc1)C(N)=O [Compound 102, (2S)-N-[(2S)-1-amino-1-oxopentan-2-yl]-2-{[(4-bromophenyl)carbamoyl]amino}-4-methylpentanamide]	nM (0.99)	7.3
CCOP(=O)(CNC(=O)[C@H](CC(C)C)NC(=O)Nc1ccc(C(F)(F)F)cc1)OCC [Compound 134, diethyl ({[(2S)-4-methyl-2-({[4-(trifluoromethyl)phenyl]carbamoyl}amino)pentanoyl]amino}methyl)phosphonate]	nM (0.97)	5.5
CC(C)C[C@H](NC(=O)Nc1ccc(Br)cc1)C(=O)N[C@H](C(=O)O)c1ccccc1 [Compound 103, (2S)-{[(2S)-2-{[(4-bromophenyl)carbamoyl]amino}-4-methylpentanoyl]amino} (phenyl)ethanoic acid]	nM (1.0)	–
CC(C)C[C@H](NC(=O)Nc1ccc(Br)cc1)C(=O)NCC(=O)N(C)C [Compound 120, (2S)-2-{[(4-bromophenyl)carbamoyl]amino}-N-[2-(dimethylamino)-2-oxoethyl]-4-methylpentanamide]	nM (0.99)	1.7
CSc1ccc(NC(=O)Nc2ccc3c(c2)C(=O)N(CCc2c[nH]cn2)C(c2ccc(C#N)cc2)C3)cc1 (stereo not drawn) [Compound 17, 1-{3-(4-cyanophenyl)-2-[2-(1H-imidazol-4-yl)ethyl]-1-oxo-1,2,3,4-tetrahydroisoquinolin-7-yl}-3-[4-(methylsulfanyl)phenyl]urea]	nM (0.92)	5.5

Compound	FPR2 (efficacy)	EC50 [nM]
CS(=O)(=O)c1ccc(NC(=O)Nc2ccc3c(c2)C(=O)N(CCCN)C(c2ccc(C#N)cc2)C3)cc1 (stereo not drawn) [Compound 18, 1-[2-(3-aminopropyl)-3-(4-cyanophenyl)-1-oxo-1,2,3,4-tetrahydroisoquinolin-7-yl]-3-[4-(methylsulfonyl)phenyl]urea]	nM (0.86)	–
CC[C@H](C)[C@H](NC(=O)Nc1ccc(Br)cc1)C(=O)NCC(C)=O [Compound 63]	nM (0.97)	10.5
CC(C)C1(CCc2ccccc2C(=O)O)NC(=O)N(NC(=O)Nc2ccc(Br)cc2)C1=O (stereo not drawn) [Compound 151, 2-{2-[1-{[(4-bromophenyl)carbamoyl]amino}-2,5-dioxo-4-(propan-2-yl)imidazolidin-4-yl]ethyl}benzoic acid]	nM (1.0)	5.8
CC(C)C[C@H](NC(=O)Nc1ccc(Br)cc1)C(=O)N[C@@H](C)C(=O)O [Compound 90, (2S)-2-{[(2S)-2-{[(4-bromophenyl)carbamoyl]amino}-4-methylpentanoyl]amino} propanoic acid]	nM (1.0)	11.6
CC[C@H](C)[C@H](NC(=O)Nc1ccc(Br)cc1)C(=O)NCC(N)=O [Compound 60, (2S,3S)-N-(2-amino-2-oxoethyl)-2-{[(4-bromophenyl)carbamoyl]amino}-3-methylpentanamide]	nM (0.91)	–
CC1(CCc2ccccc2)NC(=O)N(NC(=O)Nc2ccc(Br)cc2)C1=O (single isomer, unassigned; (+)) [Compound 57]	nM (0.93)	–
CCOP(=O)(O)CNC(=O)[C@H](CC(C)C)NC(=O)Nc1ccc(C(F)(F)F)cc1 [Compound 135, ethyl hydrogen ({[(2S)-4-methyl-2-({[4-(trifluoromethyl)phenyl]carbamoyl}amino)pentanoyl]amino}methyl)phosphonate]	nM (0.91)	1.9
O=C(Nc1ccc(Br)cc1)NN1C(=O)NC(C2CC2)(C2CC2)C1=O [Compound 65, 1-(4-bromophenyl)-3-(4,4-dicyclopropyl-2,5-dioxoimidazolidin-1-yl)urea]	nM (1.0)	–
CCC1(CC)NC(=O)N(NC(=O)Nc2ccc(Br)cc2)C1=O [Compound 49, 1-(4-bromophenyl)-3-(4,4-diethyl-2,5-dioxoimidazolidin-1-yl)urea]	nM (0.98)	11.5
CC1(CCc2ccccc2O)NC(=O)N(NC(=O)Nc2ccc(Br)cc2)C1=O (stereo not drawn) [Compound 109, 1-(4-bromophenyl)-3-{4-[2-(2-hydroxyphenyl)ethyl]-4-methyl-2,5-dioxoimidazolidin-1-yl}urea]	nM (0.93)	–
O=C(O)C1C(C(=O)Nc2ccc(I)cc2)C2CCC1C21CC1 (stereo not drawn) [Compound 15, 3-[(4-iodophenyl)carbamoyl] spiro[bicyclo[2.2.1]heptane-7,1′-cyclopropane]-2-carboxylic acid]	nM (0.87)	0.6
CC1(CCc2ccc(O)cc2)NC(=O)N(NC(=O)Nc2ccc(Br)cc2F)C1=O (stereo not drawn) [Compound 89, 1-(4-bromo-2-fluorophenyl)-3-{4-[2-(4-hydroxyphenyl)ethyl]-4-methyl-2,5-dioxoimidazolidin-1-yl}urea]	nM (0.85)	–
O=C(Nc1ccc(Br)cc1)NN1C(=O)NC2(CCCCC2)C1=O [Compound 52, 1-(4-bromophenyl)-3-(2,4-dioxo-1,3-diazaspiro[4.5]dec-3-yl)urea]	nM (1.0)	15.1
CC(C)CC(C)(NC(=O)Nc1ccc(Br)cc1)C(=O)O (stereo not drawn) [Compound 110, 2-{[(4-bromophenyl)carbamoyl]amino}-2,4-dimethylpentanoic acid]	nM (0.98)	19.4
O=C(Nc1ccc(Br)cc1)N[C@@H](Cc1ccccc1)C(=O)NCCO [Compound 58, (2S)-2-{[(4-bromophenyl)carbamoyl]amino}-N-(2-hydroxyethyl)-3-phenylpropanamide]	nM (0.86)	7
CC(C)C[C@H](NC(=O)Nc1ccc(Br)cc1)C(=O)NCP(=O)(OC(C)C)OC(C)C [Compound 131, dipropan-2-yl ({[(2S)-2-{[(4-bromophenyl)carbamoyl]amino}-4-methylpentanoyl]amino}methyl)phosphonate]	nM (1.0)	–
CC(C)C[C@H](NC(=O)Nc1ccc(Br)cc1)C(=O)NCc1nnn[nH]1 [Compound 104, (2S)-2-{[(4-bromophenyl)carbamoyl]amino}-4-methyl-N-(1H-tetrazol-5-ylmethyl)pentanamide]	nM (0.81)	–
